{"source": "patent EP3290412A1", "about": "“HIV-1 NUCLEOCAPSID INHIBITORS” (Università degli Studi di Siena, priority 2016, dated 2018)", "key": {"NC(11-55)": {"target": "NC(11-55) (Human immunodeficiency virus type 1, UniProt P12493)", "assay": "NC inhibition assay (NC-induced cTAR DNA destabilization, fluorescence)", "type": "biochemical, HIV-1", "details": "single point screening; positive = >25% inhibition at 100µM", "in_short": "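Doubly labelled cTAR (0.1 µM, Alexa488/Dabcyl) pre-complexed with 1 µM Zn-loaded NC(11-55) for 15 min, then compound added for a further 15 min; run at 20 °C in Tris-HCl pH 7.5, 30 mM NaCl, 0.2 mM MgCl2. Fluorescence read at ex 480/em 520 nm. IC50 taken from dose-response fit of % inhibition of NC-induced fluorescence increase.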"}, "[1]": {"system": "HIV-1 reference strain NL4-3", "assay": "MonoCycle assay (TZM-bl cells)", "type": "cell-based", "in_short": "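TZM-bl cells (20,000/well) were infected with NL4-3 in the presence of five-fold serial inhibitor dilutions. After 48 h, cells were lysed and luciferase luminescence (RLU) was counted. IC50 was derived from the RLU data.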"}, "HeLa cells": {"system": "HeLa cells", "assay": "HeLa Proliferation assay (CellTiter Glo)", "type": "cell-based", "details": "72 hours", "in_short": "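Viability measured with CellTiter Glo after 72 h compound exposure (37 °C, 5% CO2, humidified) of HeLa cells seeded at 2000 per well in 10% FBS DMEM without phenol red and allowed 4 h recovery.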"}, "[2]": {"details": "Human immunodeficiency virus 1, NL43, TZM-bl, 48 h, read-out: Mono Cycle IC50 nM"}, "[3]": {"details": "Human immunodeficiency virus 1, NL43, TZM-bl cells, NL4-3, 48 hours, read-out: Mono Cycle IC50"}}, "note": "Where two headings read alike, the source gives them in different places."}
{"smiles": "C[C@H](NC(=O)c1nc(-c2ccc(C(=O)OCc3ccccc3)cn2)nc(O)c1O)C1CCCCC1", "note": "[Compound 70, benzyl (S)-6-(4-((1-cyclohexylethyl)carbamoyl)-5,6-dihydroxypyrimidin-2-yl)nicotinate]", "values": [{"measurement": "inhibition at 100 µM", "setting": "NC(11-55)", "result": "> 25", "unit": "%"}, {"measurement": "IC50", "setting": "[1]; [2]", "result": "> 50000", "unit": "nM"}, {"measurement": "Proliferation assay HELA TD50", "setting": "HeLa cells", "result": 4.1006, "unit": "µM"}]}
{"smiles": "C[C@H](NC(=O)c1nc(-c2cc(C(=O)OCc3ccccc3)ccn2)nc(O)c1O)C1CCCCC1", "note": "[Compound 71, benzyl (S)-2-(4-((1-cyclohexylethyl)carbamoyl)-5,6-dihydroxypyrimidin-2-yl)isonicotinate]", "values": [{"measurement": "inhibition at 100 µM", "setting": "NC(11-55)", "result": "> 25", "unit": "%"}, {"measurement": "IC50", "setting": "[1]; [2]", "result": "> 50000", "unit": "nM"}, {"measurement": "Proliferation assay HELA TD50", "setting": "HeLa cells", "result": 12.825, "unit": "µM"}]}
{"smiles": "C[C@H](NC(=O)c1nc(-c2cc3ccccc3cn2)nc(O)c1O)C1CCCCC1", "note": "[Compound 72, (S)-N-(1-cyclohexylethyl)-5,6-dihydroxy-2-(isoquinolin-3-yl)pyrimidine-4-carboxamide]", "values": [{"measurement": "inhibition at 100 µM", "setting": "NC(11-55)", "result": "> 25", "unit": "%"}, {"measurement": "IC50", "setting": "[1]; [2]", "result": 13400, "unit": "nM"}, {"measurement": "Proliferation assay HELA TD50", "setting": "HeLa cells", "result": 3.4875, "unit": "µM"}]}
{"smiles": "Cc1cc(-c2nc(O)c(O)c(C(=O)N[C@H](C)C3CCCCC3)n2)nc2ccccc12", "note": "[Compound 73, (R)-N-(1-cyclohexylethyl)-5,6-dihydroxy-2-(4-methylquinolin-2-yl)pyrimidine-4-carboxamide]", "values": [{"measurement": "inhibition at 100 µM", "setting": "NC(11-55)", "result": "> 25", "unit": "%"}, {"measurement": "IC50", "setting": "[1]; [3]", "result": "> 50000", "unit": "nM"}, {"measurement": "Proliferation assay HELA TD50", "setting": "HeLa cells", "result": 5.3719, "unit": "µM"}]}
{"smiles": "C[C@@H](NC(=O)c1nc(-c2cc(C(=O)NCc3ccccc3)ccn2)nc(O)c1O)C1CCCCC1", "note": "[Compound 74, (R)-2-(4-(benzylcarbamoyl)pyridin-2-yl)-N-(1-cyclohexylethyl)-5,6-dihydroxypyrimidine-4-carboxamide]", "values": [{"measurement": "inhibition at 100 µM", "setting": "NC(11-55)", "result": "> 25", "unit": "%"}, {"measurement": "IC50", "setting": "[1]; [3]", "result": "> 50000", "unit": "nM"}, {"measurement": "Proliferation assay HELA TD50", "setting": "HeLa cells", "result": 3.6728, "unit": "µM"}]}
{"smiles": "C[C@H](NC(=O)c1nc(-c2ccc3ccccc3n2)nc(O)c1O)C1CCCCC1", "note": "[Compound 75, (S)-N-(1-cyclohexylethyl)-5,6-dihydroxy-2-(quinolin-2-yl)pyrimidine-4-carboxamide]", "values": [{"measurement": "inhibition at 100 µM", "setting": "NC(11-55)", "result": "> 25", "unit": "%"}, {"measurement": "IC50", "setting": "[1]; [2]", "result": "> 50000", "unit": "nM"}, {"measurement": "Proliferation assay HELA TD50", "setting": "HeLa cells", "result": 7.5355, "unit": "µM"}]}
{"smiles": "Cc1ccnc(-c2nc(O)c(O)c(C(=O)NC3(C4CCCCC4)CC3)n2)c1", "note": "[Compound 84, N-(1-cyclohexylcyclopropyl)-5,6-dihydroxy-2-(4-methylpyridin-2-yl)pyrimidine-4-carboxamide]", "values": [{"measurement": "inhibition at 100 µM", "setting": "NC(11-55)", "result": "> 25", "unit": "%"}, {"measurement": "IC50", "setting": "[1]; [3]", "result": 21200, "unit": "nM"}, {"measurement": "Proliferation assay HELA TD50", "setting": "HeLa cells", "result": 1.9245, "unit": "µM"}]}
{"smiles": "CC(NC(=O)c1nc(-c2nccc3ccccc23)nc(O)c1O)C1CCC(F)(F)CC1", "note": "(stereo not drawn) [Compound 90, N-(1-(4,4-difluorocyclohexyl)ethyl)-5,6-dihydroxy-2-(isoquinolin-1-yl)pyrimidine-4-carboxamide]", "values": [{"measurement": "inhibition at 100 µM", "setting": "NC(11-55)", "result": "> 25", "unit": "%"}, {"measurement": "IC50", "setting": "[1]; [3]", "result": "> 50000", "unit": "nM"}, {"measurement": "Proliferation assay HELA TD50", "setting": "HeLa cells", "result": 6.4522, "unit": "µM"}]}
